Data from patent publication US7282339B2, “Competitive immunoassay” (Invitrogen Corporation, priority 2003, dated 2007).

Assays:
[1] = tested on: P-Tyr-100 antiphosphotyrosine monoclonal antibody; test: Ligand analog screening: fluorescence intensity and polarization vs P-Tyr-100 antibody concentration (Examples 22, 24); type: binding, mouse; details: for Fmax/Fmin: ratio of fluorescence intensity at lowest (Fmax) to highest (Fmin) antibody concentration, 50 nM ligand analog, P-Tyr-100 0.8 to 500 nM, ex/em 480/535 nm
Description: Solutions of test compounds (100 nM) were prepared were prepared in 50 mM Tris-HCl pH 7.5, 10 mM MgCl2, 0.01% Brij-35, 500 μM ATP, 2 mM DTT, 1 mM EGTA. 20 μl aliquots of these solutions were pipetted into the wells of a 384-well microplate. 20 μl aliquots of a serially-diluted […] stock solution of P-Tyr-100 antiphosphotyrosine monoclonal antibody (Cell Signaling Technology, Beverly, Mass.) were added to the wells. The resulting samples contained 50 nM of each ligand analog (Compounds 15, 7, 8, 9, 18 and 19) and antibody concentrations ranging from 0.8 to 500 nM. Fluorescence polarization and intensity of the samples was measured on an EnVision microplate reader (PerkinElmer Life Sciences) using excitation/emission filter settings of 480/535 nm. Increasing fluorescence polarization as a function of antibody concentration (A) provides confirmation of ligand analog binding to the antibody. […] Phosphotyrosine peptide, target ligand, (phospho-pp60 c-src (521-533); TSTEPQY*QPGENL, Bachem California, Inc. Torrance, Calif.) was then added to all samples at a concentration of 10 μM and the fluorescence intensity and polarization measurements were repeated (C, D). […] Displacement of the ligand analogs from antibody is confirmed by depolarization of fluorescence (D compared to A). […] See, FIG. 14.
Compound 12 and Compound 13 were assessed for efficacy using the methods described in Example 22. […] Samples containing 100 nM of Compound 13 and additional components identified in the figure legend were prepared in 50 mM Tris-HCl pH 7.5, 10 mM MgCl2, 0.01% Brij-35, 100 μM ATP, 2 mM DTT, 1 mM EGTA. 100 μL volumes of these samples were transferred to microcuvettes. The fluorescence emission spectrum was recorded for each sample using a Hitachi F-4500 spectrofluorometer (excitation wavelength=520 nm). See, FIG. 15

[2] = tested on: Rabbit anti-Akt polyclonal antibody; test: Binding of ethanolamine phosphate ligand analog by anti-Akt antibody (Example 10); details: 50 nM compound, antibody zero to 250 nM
Description: A 5 mM solution of BODIPY FL ethanolamine phosphate Compound 2 was made in water. A 2.5 mM solution of BODIPY FL ethanolamine (Compound 1) was made in 50% (v/v) DMSO, See Example 1. Rabbit anti-Akt polyclonal antibody (Cell Signaling Technology, catalog # 9611) was serially diluted in 5 μl 50 mM Tris buffer, pH 7.5 in a black, 384-well flat-bottom Packard ProxiPlate preblocked with 0.25% (v/v) Mowiol. After the antibody was serially diluted in the plate, 5 μl of either Compound 2 or Compound 1 was added to the same wells. The final concentration of both compounds in the wells was each 50 nM. The final antibody concentration in the wells was zero to 250 nM. The fluorescence intensity was measured on an EnVision microplate reader (Perkin Elmer), PMT 1 gain 155, PMT 2 gain 191, excitation light 76%, 100 flashes at 9 mM height.

[3] = tested on: Compound 15+P-Tyr-100 complex; test: Displacement of phosphotyramide ligand analog by phosphotyrosine peptide but not by ATP (Example 17); type: binding, mouse; details: zero to 1 mM ATP
Description: A 5 mM solution of Compound 15 was prepared in water. Separate reactions of 100 nM Compound 15+/−100 nM P-Tyr-100 (Cell Signaling Technology, catalog # 9411) complexes were made in kinase buffer with various amounts of ATP (50 mM Tris, pH 7.5, 10 mM MgCl2, 1 mM EGTA, 0.01% Brij 35, 2 mM DTT, with zero, 0.1, 0.25, 0.5, or 1 mM ATP). The fluorescence emission of each of the ten solutions was measured using a Hitachi F-4500 spectrofluorometer (Ex 450, Em 510, slit width 5 nm for both wavelengths, PMT gain 700 V). After the initial read, 10 μM phospho-pp60 c-src (10 μM final concentration) peptide (521-533) (TSTEPQY*QPGENL) (Bachem, catalog # H-3258) in kinase buffer was added to the antibody:ligand reactions, and the resulting fluorescence intensity was measured on the same instrument at the same settings.

Molecule: O=C(NCCc1ccc(OP(=O)(O)O)cc1)c1ccc(C(=O)O)c(-c2c3ccc(=O)cc-3oc3cc(O)ccc23)c1 [Compound 9, 6-FAM phosphotyramide]
- binding affinity for the antibody, 6-isomer compared to 5-isomer ([1]; compared to Compound 8): increased binding affinity
- quenching by the antibody, 6-isomer compared to 5-isomer ([1]; compared to Compound 8): increased quenching
- Fmax/Fmin [1]: 3.2

Molecule: BODIPY FL ethanolamine phosphate [Compound 2]
- quenching of ligand analog when bound by the antibody [2]: slightly quenched

Molecule: O=C(CSc1c(F)c(F)c(C(=O)O)c(-c2c3cc(F)c(=O)cc-3oc3cc(O)c(F)cc23)c1F)NCCc1ccc(OP(=O)(O)O)cc1 [Compound 7, Oregon Green 514 phosphotyramide]
- Fmax/Fmin [1]: 4.0

Molecule: Nc1ncnc2c1ncn2[C@@H]1O[C@H](COP(=O)(O)OP(=O)(O)OP(=O)(O)O)[C@@H](O)[C@H]1O [ATP]
- displacement of the phosphotyramide ligand analog [3]: does not displace

Molecule: O=C(NCCc1ccc(OP(=O)(O)O)cc1)c1ccc(-c2c3ccc(=O)cc-3oc3cc(O)ccc23)c(C(=O)O)c1 [Compound 8, 5-FAM phosphotyramide]
- performance in displacement assay, 6-position vs 5-position ([1]; fluorescence intensity readout): superior performance
- Fmax/Fmin [1]: 1.3

Molecule: O=C(O)c1cc(NC(=S)NCCc2ccc(OP(=O)(O)O)cc2)ccc1-c1c2ccc(=O)cc-2oc2cc(O)ccc12 [Compound 18, 5-FITC phosphotyramide]
- Fmax/Fmin [1]: 1.7

Molecule: CN(C)c1ccc2c(-c3cc(C(=O)NCCc4ccc(OP(=O)([O-])O)cc4)ccc3C(=O)O)c3ccc(=[N+](C)C)cc-3oc2c1 [Compound 12]
- fluorescence intensity change on antibody binding ([1]; methods of Example 22): little or no analytically useful fluorescence intensity change
- fluorescence polarization change on antibody binding ([1]; methods of Example 22): large fluorescence polarization changes

Molecule: 6-FITC phosphotyramide [Compound 19]
- Fmax/Fmin [1]: 1.6
